This is an account of results in ChEMBL document CHEMBL4118132, “Novel 5-methyl-2-phenylphenanthridium derivatives as FtsZ-targeting antibacterial agents from structural simplification of natural product sanguinarine” (2018).

Assay type in all cases: functional
The test system of assay [1] is Streptococcus pyogenes. Nature of the assay: Antibacterial activity against penicillin-susceptible Streptococcus pyogenes after 24 hrs by broth microdilution method.
Assay [2] concerns Bacillus pumilus. Nature of the assay: Antibacterial activity against penicillin-susceptible Bacillus pumilus ATCC 63202 after 24 hrs by broth microdilution method. To be noted: ATCC 63202, 24 h.
For assay [3], the system named is Staphylococcus aureus. As to the kind of experiment: Antibacterial activity against methicillin-resistant Staphylococcus aureus ATCC 43300 after 24 hrs by broth microdilution method. The settings on record: ATCC 43300, 24 h.
In assay [4] the test system is Pseudomonas aeruginosa. As to the kind of experiment: Antibacterial activity against penicillin-susceptible Pseudomonas aeruginosa ATCC 27853 after 24 hrs by broth microdilution method. The settings on record: ATCC 27853, 24 h.
Assay [5] deals with Streptococcus pyogenes. As to the kind of experiment: Antibacterial activity against penicillin-resistant Streptococcus pyogenes after 24 hrs by broth microdilution method.
Assay [6] deals with Bacillus subtilis. As to the kind of experiment: Antibacterial activity against penicillin-susceptible Bacillus subtilis ATCC 9372 after 24 hrs by broth microdilution method. The settings on record: ATCC 9372, 24 h.
For assay [7], the system named is Staphylococcus aureus. Nature of the assay: Bactericidal activity against penicillin-susceptible Staphylococcus aureus ATCC 25923 after 24 hrs by flat colony counting method. To be noted: ATCC 25923, 24 h.
Assay [8] has as its system Staphylococcus aureus. As to the kind of experiment: Antibacterial activity against penicillin-resistant Staphylococcus aureus clinical isolate after 24 hrs by broth microdilution method.
For assay [9], the system named is Staphylococcus aureus. As to the kind of experiment: Antibacterial activity against penicillin-susceptible Staphylococcus aureus ATCC 25923 after 24 hrs by broth microdilution method. The settings on record: ATCC 25923, 24 h.
Assay [10] relates to Escherichia coli. Nature of the assay: Antibacterial activity against penicillin-susceptible Escherichia coli ATCC 25922 after 24 hrs by broth microdilution method. The settings on record: ATCC 25922, 24 h.
Assay [11] deals with Staphylococcus epidermidis. As to the kind of experiment: Antibacterial activity against penicillin-resistant Staphylococcus epidermidis clinical isolate after 24 hrs by broth microdilution method.

Converted amounts (≈) assume the structure as drawn. Some results are limits rather than exact numbers.

Take `COc1cc(-c2ccc(OC(F)(F)F)cc2)cc2c3ccccc3c[n+](C)c12.[Cl-]`: the MIC in assay [1] is 2 µg/mL; in [2], 2 µg/mL; in assay [3] it was 4 µg/mL; in [4], above 64 µg/mL; in [5] it was 16 µg/mL; in [6], 4 µg/mL. Besides, the MIC was 8 µg/mL in assay [8], 1 µg/mL in assay [9], above 64 µg/mL in assay [10] and 16 µg/mL in assay [11]. This molecule had a minimal bactericidal concentration (MBC) in assay [7] of 32 µg/mL.

For `Cc1onc(-c2ccccc2)c1C(=O)N[C@@H]1C(=O)N2[C@@H]1SC(C)(C)[C@@H]2C(=O)[O-].[Na+]`, the MIC in assay [1] was 1 µg/mL; in assay [2], 32 µg/mL; in [3], above 64 µg/mL; in assay [4], above 64 µg/mL; in [5] it was above 64 µg/mL; in [6] it was 4 µg/mL. Besides, the minimum inhibitory concentration (MIC) in [8] was above 64 µg/mL; in assay [9] it was 4 µg/mL; in assay [10], above 64 µg/mL; in assay [11], above 64 µg/mL.

As to `COc1cc(-c2ccccc2C(F)(F)F)cc2c3ccccc3c[n+](C)c12.[Cl-]`, the minimal inhibitory concentration (MIC) is 16 µg/mL in assay [1]; 16 µg/mL in [2]; 16 µg/mL in assay [3]; above 64 µg/mL in assay [4]; 16 µg/mL in [5]; 16 µg/mL in [6]. Also, the MIC in assay [8] was 16 µg/mL; in assay [9] it was 8 µg/mL; in assay [10], above 64 µg/mL; in assay [11], 16 µg/mL. Besides, the MBC in assay [7] is above 64 µg/mL.

For `Cc1ccc(-c2ccc3c(c2)c2ccccc2c[n+]3C)cc1.[Cl-]`, the MIC in [1] is 4 µg/mL; in assay [2], 8 µg/mL; in assay [3], 16 µg/mL; in assay [4] it was above 64 µg/mL; in assay [5] it was 16 µg/mL; in assay [6], 2 µg/mL. The MIC in assay [8] is 16 µg/mL; in assay [9], 8 µg/mL; in [10] it was above 64 µg/mL; in assay [11], 32 µg/mL. This molecule also returned a minimal bactericidal concentration (MBC) in assay [7] above 64 µg/mL.

Regarding `C[n+]1cc2ccccc2c2cc(-c3ccc(C(F)(F)F)cc3)ccc21.[Cl-]`, the MIC is 2 µg/mL in assay [1]; 8 µg/mL in assay [2]; 16 µg/mL in assay [3]; above 64 µg/mL in assay [4]; 16 µg/mL in assay [5]; 4 µg/mL in [6]. Moreover, the minimal inhibitory concentration (MIC) in [8] was 16 µg/mL; in [9], 8 µg/mL; in assay [10], above 64 µg/mL; in assay [11] it was above 64 µg/mL. The same molecule had an MBC in [7] above 64 µg/mL.

In the case of `COc1cc(-c2ccc(C)cc2)cc2c3ccccc3c[n+](C)c12.[Cl-]`, the minimal inhibitory concentration (MIC) is 2 µg/mL in [1]; 2 µg/mL in assay [2]; 4 µg/mL in assay [3]; above 64 µg/mL in assay [4]; 8 µg/mL in assay [5]; 0.5 µg/mL in [6]. In addition, the minimum inhibitory concentration (MIC) in assay [8] was 16 µg/mL; in [9], 4 µg/mL; in [10] it was above 64 µg/mL; in [11], 16 µg/mL. In assay [7], this molecule yielded an MBC of 64 µg/mL.

Take `COc1cc(/C=C/C(=O)CC(=O)/C=C/c2ccc(O)c(OC)c2)ccc1O` [CURCUMIN]: the MIC in assay [1] was above 64 µg/mL; in [2], 32 µg/mL (≈ 86.9 µM); in assay [3], 64 µg/mL (≈ 174 µM); in [4], above 64 µg/mL; in assay [6], 32 µg/mL (≈ 86.9 µM); in assay [8] it was above 64 µg/mL. The minimum inhibitory concentration (MIC) was 32 µg/mL (≈ 86.9 µM) in assay [9], above 64 µg/mL in assay [10] and above 64 µg/mL in assay [11].

Regarding `COc1ccc(-c2cc(OC)c3c(c2)c2ccccc2c[n+]3C)cc1.[Cl-]`, the MIC in [1] was 4 µg/mL; in [2], 8 µg/mL; in assay [3] it was 32 µg/mL; in assay [4], above 64 µg/mL; in assay [5], 8 µg/mL; in [6] it was 2 µg/mL. The minimum inhibitory concentration (MIC) in [8] is 64 µg/mL; in [9] it was 16 µg/mL; in assay [10], above 64 µg/mL; in assay [11] it was 16 µg/mL. This molecule showed an MBC in assay [7] above 64 µg/mL.

Regarding `C[n+]1cc2ccccc2c2cc(-c3ccc(-c4ccccc4)cc3)ccc21.[Cl-]`, the minimum inhibitory concentration (MIC) was 2 µg/mL in assay [1]; 16 µg/mL in [2]; 64 µg/mL in assay [3]; above 64 µg/mL in assay [4]; 64 µg/mL in assay [5]; 8 µg/mL in assay [6]. For the same molecule, the minimum inhibitory concentration (MIC) is 8 µg/mL in assay [8], 8 µg/mL in assay [9], above 64 µg/mL in assay [10] and above 64 µg/mL in [11]. The same molecule returned an MBC in [7] above 64 µg/mL.

Turning to `C[n+]1cc2ccccc2c2cc(-c3ccc(OC(F)(F)F)cc3)ccc21.[Cl-]`, the MIC was 4 µg/mL in assay [1]; 8 µg/mL in assay [2]; 64 µg/mL in assay [3]; above 64 µg/mL in assay [4]; 32 µg/mL in assay [5]; 2 µg/mL in assay [6]. Also, the MIC in assay [8] is 64 µg/mL; in [9], 4 µg/mL; in assay [10], above 64 µg/mL; in assay [11], 16 µg/mL. The MBC in assay [7] was 64 µg/mL.

With `COc1cc(-c2ccccc2)cc2c3ccccc3c[n+](C)c12.[Cl-]`, the MIC in [1] was 2 µg/mL; in assay [2] it was 4 µg/mL; in [3], 8 µg/mL; in assay [4] it was above 64 µg/mL; in assay [5], 8 µg/mL; in assay [6], 1 µg/mL. The MIC in assay [8] is 64 µg/mL; in assay [9] it was 16 µg/mL; in assay [10], above 64 µg/mL; in assay [11], 4 µg/mL. In addition, the minimal bactericidal concentration (MBC) in assay [7] is above 64 µg/mL.

With `COc1ccc(-c2ccc3c(c2)c2ccccc2c[n+]3C)cc1.[Cl-]`, the MIC in [1] is 4 µg/mL; in [2], 16 µg/mL; in assay [3] it was 64 µg/mL; in assay [4], above 64 µg/mL; in assay [5], 16 µg/mL; in assay [6], 4 µg/mL. The minimum inhibitory concentration (MIC) in assay [8] is 64 µg/mL; in assay [9], 4 µg/mL; in assay [10], above 64 µg/mL; in [11], 64 µg/mL. Further, the minimum bactericidal concentration (MBC) in [7] is above 64 µg/mL.

For the molecule `COc1cc(-c2cccc(C(F)(F)F)c2)cc2c3ccccc3c[n+](C)c12.[Cl-]`, the minimal inhibitory concentration (MIC) in assay [1] was 4 µg/mL; in assay [2], 4 µg/mL; in assay [3], 8 µg/mL; in [4] it was above 64 µg/mL; in assay [5] it was 8 µg/mL; in [6], 4 µg/mL. Besides, the minimum inhibitory concentration (MIC) in [8] was 8 µg/mL; in assay [9], 2 µg/mL; in assay [10], above 64 µg/mL; in assay [11], 4 µg/mL. For the same molecule, the MBC in assay [7] was found to be 32 µg/mL.

For `C[n+]1cc2ccccc2c2cc(-c3cccc(C(F)(F)F)c3)ccc21.[Cl-]`, the minimum inhibitory concentration (MIC) in [1] was 16 µg/mL; in [2] it was 16 µg/mL; in [3], 16 µg/mL; in assay [4], above 64 µg/mL; in assay [5], 8 µg/mL; in assay [6], 16 µg/mL. For the same molecule, the MIC in [8] was 16 µg/mL; in assay [9] it was 8 µg/mL; in assay [10], above 64 µg/mL; in assay [11], 8 µg/mL. This molecule also displayed an MBC in assay [7] above 64 µg/mL.

As to `C[n+]1cc2ccccc2c2cc(-c3ccccc3)ccc21.[Cl-]`, the MIC in assay [1] is 4 µg/mL; in [2], 16 µg/mL; in assay [3] it was 16 µg/mL; in [4], above 64 µg/mL; in [5], 16 µg/mL; in assay [6], 4 µg/mL. Also, the MIC in assay [8] is 64 µg/mL; in assay [9] it was 32 µg/mL; in assay [10] it was above 64 µg/mL; in assay [11], 16 µg/mL. Also, the MBC in [7] is above 64 µg/mL.

On to `COc1cc(-c2ccc(C(F)(F)F)cc2)cc2c3ccccc3c[n+](C)c12.[Cl-]`, for which the minimum inhibitory concentration (MIC) in [1] was 0.5 µg/mL; in assay [2], 2 µg/mL; in assay [3], 4 µg/mL; in assay [4], above 64 µg/mL; in assay [5], 8 µg/mL; in assay [6], 1 µg/mL. Also, the minimum inhibitory concentration (MIC) in [8] is 8 µg/mL; in assay [9], 2 µg/mL; in assay [10], above 64 µg/mL; in assay [11], 8 µg/mL. This molecule also came in with a minimum bactericidal concentration (MBC) in assay [7] of 32 µg/mL.

On to `COc1cc(-c2ccc(-c3ccccc3)cc2)cc2c3ccccc3c[n+](C)c12.[Cl-]`, for which the minimal inhibitory concentration (MIC) in [1] is 1 µg/mL; in assay [2], 2 µg/mL; in [3] it was 4 µg/mL; in assay [4], above 64 µg/mL; in assay [5], 16 µg/mL; in assay [6], 2 µg/mL. Also, the MIC in assay [8] is 4 µg/mL; in [9], 1 µg/mL; in assay [10], above 64 µg/mL; in assay [11], 8 µg/mL. Further, in assay [7], the minimal bactericidal concentration (MBC) is 16 µg/mL.

Take `C[n+]1cc2ccccc2c2cc(-c3ccccc3C(F)(F)F)ccc21.[Cl-]`: the minimal inhibitory concentration (MIC) was 64 µg/mL in assay [1]; 32 µg/mL in assay [2]; 32 µg/mL in assay [3]; above 64 µg/mL in [4]; 32 µg/mL in assay [5]; 32 µg/mL in assay [6]. Besides, the minimal inhibitory concentration (MIC) in assay [8] was 32 µg/mL; in assay [9] it was 16 µg/mL; in [10] it was above 64 µg/mL; in [11] it was 32 µg/mL. The molecule further came in with an MBC in assay [7] above 64 µg/mL.
